The values below are quoted from earlier work in patent publication US20080038252A1, “Histamine-Containing Composition for the Treatment of Allergic Diseases” (priority 2005, published 2008).

This data set has as its system allergy animal model. The settings on record: same amount as in the complex, administered alone to the allergy animal model (Yoshii).

As for `NCCc1c[nH]cn1` [histamine], the anti-inflammatory effect result was “not produced”.
